Source: patent US12630803B2, “Method of increasing proliferation of pancreatic beta cells, treatment method, and composition” (ICAHN SCHOOL OF MEDICINE AT MOUNT SINAI, priority 2018, dated 2026)
“Also recorded” adds a separate entry of the source. Ends that are not written are not given here.

Key:
human beta cells [1] = experiment: Ki67-insulin immunolabeling of dispersed human islet cells (beta cell proliferation); conditions: for actual Ki67% values: DYRK1A inhibitor alone, dispersed human islets, 96 hours, FIG. 1F; for synergy of DYRK1A inhibitor with GLP1 on beta cell proliferation: in combination with GLP1, FIGS. 1F, 4; for synergy of GLP1R agonist with harmine on beta cell proliferation: in combination with harmine, FIG. 1G; for proliferation, agent alone at low dose: harmine 1 μM alone or GLP1 alone, FIG. 3E; for ability to replace or mimic GLP1 in harmine-GLP1 proliferation: agent administered together with harmine, FIGS. 5A-5C, 5E, 5F
Text: (§3) Human Islets: Human islets from 81 normal donors were obtained through the NIH-supported Integrated Islet Distribution Program (IIDP), the Alberta Diabetes Institute Islet Core at the University of Alberta, and the Clinical Islet Laboratory, University of Alberta Hospital. Islets were harvested from pancreata from deceased organ donors without any identifying information with informed consent and IRB approval at the islet-isolating centers. […] In addition, islets were obtained from 11 donors with Type 2 diabetes. […] Three were known to be on diabetes medications (metformin n=3, DPP4 inhibitor n=1). […] Whole islets were pelleted by centrifugation at 200×G and washed twice in PBS. Islets were then incubated in Accutase for 15-17 minutes at 37° C. and completely dispersed to single cells by pipette trituration. Single islet cells were pelleted by centrifugation at 700×G and re-suspended in islet culture medium.
(§4) Compound Treatments: Dispersed islets were plated on poly-D-lysine-laminin-coated glass chamber slides or coverslips. Cells derived from 20-30 IEQ dispersed cells were seeded per well, and allowed to recover for 24 hr prior to compound treatment. Cells were treated for 96 hours prior to Ki67 staining, BrdU staining or TUNEL labeling.
Antibodies were diluted in blocking buffer (5% normal goat serum (NGS), 1% bovine serum albumin (BSA), 0.5% Triton, in PBS). […] BrdU (Cell Proliferation Labelling Reagent. Amersham GE Healthcare. GE: RPN201) was added to each treatment at a 1:100 dilution, 18 hours prior to fixation. Antigen retrieval for BrdU immunostaining was performed following fixation using 1N HCl at 37° C. for 30 minutes before primary antibody incubation.

beta (INS+) cells = experiment: BrdU labeling in beta (INS+) cells of dispersed human islets; assay type: cell-based
Text: (§1) Primary and secondary antisera used are listed below.

alpha (GCG+) cells = experiment: BrdU labeling in alpha (GCG+) cells of dispersed human islets; assay type: cell-based
Text: as §1

delta (SST+) cells = experiment: BrdU labeling in delta (SST+) cells of dispersed human islets; assay type: cell-based
Text: as §1

ductal (CK19+) cells = experiment: BrdU labeling in ductal (CK19+) cells of dispersed human islets; assay type: cell-based
Text: as §1

human beta cells [2] = experiment: TUNEL assay of beta cell death; assay type: cell-based; conditions: 96 hours, FIGS. 10C-10D
Text: as §1

[3] = tested on: markers of beta cell differentiation; experiment: qPCR of differentiation markers in islets from donors with T2D; assay type: cell-based, human; conditions: FIG. 9A
Text: Purity ranged from 55% to 85%.
(§2) Primers are shown below in Tables 5 and 6.

PDX1, MAFA, and NKX6.1 = conditions: normal donors, FIG. 8B
Experimental: Antibodies were diluted in blocking buffer (5% normal goat serum (NGS), 1% bovine serum albumin (BSA), 0.5% Triton, in PBS). Primary and secondary antisera used are listed below. BrdU (Cell Proliferation Labelling Reagent. Amersham GE Healthcare. GE: RPN201) was added to each treatment at a 1:100 dilution, 18 hours prior to fixation. Antigen retrieval for BrdU immunostaining was performed following fixation using 1N HCl at 37° C. for 30 minutes before primary antibody incubation. Cells were incubated with primary and secondary antibodies according to Table 4 below before counterstained with DAPI.

T2D beta cells = conditions: FIGS. 9D-9E
Text: as §3, §4
Antibodies were diluted in blocking buffer (5% normal goat serum (NGS), 1% bovine serum albumin (BSA), 0.5% Triton, in PBS). […]

cell cycle molecules = experiment: qPCR of cell cycle activators and inhibitors in human islets; assay type: cell-based; conditions: GLP1 added to harmine, vs harmine alone, 72 hours
Text: as §2

[4] = GLP1 added to harmine, vs harmine alone

Compound: CC(C)Oc1ccc(F)c(-c2cnc(N)c(C(=O)Nc3cnccc3N3CCC[C@@H](C(=O)O)C3)n2)c1 [GNF4877]
- actual Ki67% values (human beta cells [1]): 2.9%
- synergy of DYRK1A inhibitor with GLP1 on beta cell proliferation (human beta cells [1]): synergistic

Compound: Nc1ncnc2c1c(I)cn2[C@@H]1O[C@H](CO)[C@@H](O)[C@H]1O [5-IT, 5-iodotubercidin]
- actual Ki67% values (human beta cells [1]): 2.6%
- synergy of DYRK1A inhibitor with GLP1 on beta cell proliferation (human beta cells [1]): synergistic

Compound: exendin-4: GLP1R agonist (11940, Cayman)
- synergy of GLP1R agonist with harmine on beta cell proliferation (human beta cells [1]): synergy was also apparent

Compound: COc1ccc2c(c1)[nH]c1c(C)nccc12 [harmine]
- proliferation (BrdU) in beta cells (beta (INS+) cells; harmine alone): activates proliferation
- proliferation (BrdU) in alpha cells (alpha (GCG+) cells; harmine alone): activates proliferation
- proliferation (BrdU) in delta cells (delta (SST+) cells; harmine alone): activates proliferation
- proliferation (BrdU) in ductal cells (ductal (CK19+) cells; harmine alone): activates proliferation
- markers of beta cell death (TUNEL) (human beta cells [2]): Neither harmine nor the harmine-GLP1 combination treatment induced markers of beta cell death
- expression of differentiation markers (qPCR) [3]: did not have adverse effects on differentiation
- expression of differentiation markers (qPCR) ([3]; listed as Harmine): increased the expression of PDX1, MAFB, NKX6.1, GLUT2, GLP1R, and PCSK1
- PDX1, MAFA and NKX6.1 proteins in beta cells (PDX1, MAFA, and NKX6.1): increases in beta cell nuclei
- beta cell proliferation (Ki67 immunolabeling) (T2D beta cells): activated beta cell proliferation in T2D beta cells
- actual Ki67% values (human beta cells [1]): 2.1%
- proliferation, agent alone at low dose (human beta cells [1]): little or no proliferation
- human beta cell proliferation (Ki67 in insulin-positive cells) (human beta cells [1]; harmine alone): ~2%
- actual Ki67% value (human beta cells [1]; harmine alone, experiments of FIG. 1G): 2.2%

Compound: OCCN(CCO)c1nc(N2CCCCC2)c2nc(N(CCO)CCO)nc(N3CCCCC3)c2n1 [dipyridamole]
- ability to replace or mimic GLP1 in harmine-GLP1 proliferation (human beta cells [1]): mimicked; also recorded: can replace GLP1
- effect on human beta cell proliferation, agent administered alone (human beta cells [1]): no effect on proliferation

Compound: CC(C)Cn1c(=O)n(C)c(=O)c2[nH]cnc21 [IBMX, 3-Isobutyl-1-methylxanthine]
- ability to replace or mimic GLP1 in harmine-GLP1 proliferation (human beta cells [1]): mimicked; also recorded: can replace GLP1
- effect on human beta cell proliferation, agent administered alone (human beta cells [1]): no effect on proliferation

Compound: CCCC(=O)Nc1ncnc2c1ncn2[C@@H]1O[C@@H]2COP(=O)(O)O[C@H]2[C@H]1OC(=O)CCC [di-butyryl cAMP, dibutyryl cAMP]
- ability to replace or mimic GLP1 in harmine-GLP1 proliferation (human beta cells [1]): can replace GLP1
- ability to replace or mimic GLP1 in harmine-GLP1 proliferation (human beta cells [1]; listed as dibutyryl-cyclicAMP): mimicked
- effect on human beta cell proliferation, agent administered alone (human beta cells [1]): no effect on proliferation

Compound: O=S(=O)(NCCNC/C=C/c1ccc(Br)cc1)c1cccc2cnccc12 [H89]
- effect on human beta cell proliferation, agent administered alone (human beta cells [1]): no effect on its own

Compound: CCN1/C(=C/C(C)=O)Sc2ccc(O)cc21 [INDY]
- actual Ki67% values (human beta cells [1]): 1.7%
- synergy of DYRK1A inhibitor with GLP1 on beta cell proliferation (human beta cells [1]): synergistic

Compound: GLP1(7-36)amide (HAEGTFTSDVSSYLEGQAAKEFIAWLVKGR-NH2; UniProt P01275 98-127, looked up)
- proliferation (BrdU) in beta cells (beta (INS+) cells; [4]): further increased proliferation; also recorded: accentuates
- proliferation (BrdU) in alpha cells (alpha (GCG+) cells; [4]): no additional effect
- proliferation (BrdU) in delta cells (delta (SST+) cells; [4]): no additional effect
- proliferation (BrdU) in ductal cells (ductal (CK19+) cells; [4]): further increased proliferation; also recorded: accentuates
- change to cell cycle activators or inhibitors (qPCR) (cell cycle molecules): no incremental change to cell cycle activators or inhibitors
- effect on human beta cell proliferation, agent administered alone (human beta cells [1]): negligible effects
- proliferation, agent alone at low dose (human beta cells [1]): little or no proliferation
- synergy of GLP1R agonist with harmine on beta cell proliferation (human beta cells [1]): synergy was also apparent

Compound: lixisenatide: GLP1R agonist
- synergy of GLP1R agonist with harmine on beta cell proliferation (human beta cells [1]): synergy was also apparent

Compound: O=C1NC(Nc2ccccc2)=N/C1=C\c1ccc2c(c1)OCO2 [leucettine]
- actual Ki67% values (human beta cells [1]): 2.8%
- synergy of DYRK1A inhibitor with GLP1 on beta cell proliferation (human beta cells [1]): synergistic
